The source made the active and inactive calls. How the calls were made is not given here.
Target: glucose-6-phosphate dehydrogenase-6-phosphogluconolactonase (Plasmodium falciparum 3D7)
Assay: PfG6PD enzyme inhibitors, direct NADPH readout, dose response, orthogonal assay, biochemical, end-point NADPH detection (AID 540252)
Settings: purified PfG6PD enzyme

SMILES	IC50
COc1cc(N2C(=O)C=CC2=O)ccc1N1C(=O)C=CC1=O	16.5 µM
COc1ccc(N2C(=O)/C(=C/c3cccs3)NC2=S)cc1	> 80 µM (inactive)
Cc1cc(C)nc(SSc2nc(C)cc(C)n2)n1	57.6 µM
CC(C)c1cc2c(c(O)c1O)[C@@]13CCCC(C)(C)C1CC2OC3=O (stereo partly specified)	> 80 µM (inactive)
O=C(Nc1nnc(S(=O)(=O)N2CCCCC2)s1)c1ccc(Cl)cc1	> 80 µM (inactive)
COc1c2ccoc2c(OCC=C(C)C)c2oc(=O)ccc12	> 80 µM (inactive)
COc1ccc(N=C2C(=S)N(c3ccc(OC)cc3)C(=NS(=O)(=O)c3ccccc3)N2c2ccccc2)cc1	> 80 µM (inactive)
Nn1c(CSc2nc3ccccc3o2)nnc1CSc1nc2ccccc2o1	> 80 µM (inactive)
COc1ccc(Cl)cc1NC(=O)c1cccc([N+](=O)[O-])c1O	> 80 µM (inactive)
O=C1C=CC2=C3c4cc(O)c(O)cc4CC3(O)COC2=C1O (stereo unspecified)	> 80 µM (inactive)
O=C1Nc2cc(C(=O)NCCCN3CCCC3)ccc2S/C1=C/c1cccc(Cl)c1	> 80 µM (inactive)
COc1cccc(/C=N/NC(=O)CSc2cccc3cccnc23)c1	> 80 µM (inactive)
O=c1c2ccccc2[se]n1-c1ccccc1	13.5 µM
Cc1cc(O)c(-c2cc(O)c(C)cc2O)cc1O	> 80 µM (inactive)
CC(=O)Nc1ccc2c(c1)Cc1cc(N3C(=O)C=CC3=O)ccc1-2	23.7 µM
COc1cccc(-c2c(C(=O)N/N=C/c3ccc(C)o3)nnn2-c2nonc2N)c1	> 80 µM (inactive)
O=C(Nc1sc2c(c1C(=O)O)CCC2)c1ccc(F)cc1	> 80 µM (inactive)
C=CCSc1nc2sc3c(c2c(=O)n1CC)CCc1ccccc1-3	> 80 µM (inactive)
Cc1cccc(NC2=C(NC(=O)c3ccccc3)C(=O)c3ccccc3C2=O)c1	> 80 µM (inactive)
COc1cc(CNc2ccc3[nH]c(=O)[nH]c3c2)ccc1OCc1ccccc1	> 80 µM (inactive)
O=S(=O)(Nc1ccc(Cl)cc1)c1ccc(N2CCOCC2)c(NC(=S)NCCN2CCOCC2)c1	> 80 µM (inactive)
O=S(=O)(Nc1ccccc1F)c1cccc(NC(=S)NCCN2CCOCC2)c1	71.2 µM
ClC(Cl)(c1nnnn1-c1ccccc1)c1nnnn1-c1ccccc1	56.2 µM
O=C(CCc1ccc(S(=O)(=O)N2CCOCC2)cc1)N/N=C/c1ccc(O)c(O)c1O	> 80 µM (inactive)
CCCN1CCc2cccc3c2[C@H]1Cc1ccc(O)c(O)c1-3	> 80 µM (inactive)
COC1=C(OC)C(=O)C(Sc2ccc3ccccc3c2)=CC1=O	30.2 µM

SMILES	IC50
Cc1ccc(-c2c(C(=O)N/N=C/c3ccsc3)nnn2-c2nonc2N)cc1	> 80 µM (inactive)
[O-]/[N+](=C\c1ccccc1)c1ccc(Br)cc1	66 µM
CCSc1nc2cc(S(=O)(=O)N3CCOCC3)ccc2o1	> 80 µM (inactive)
O=c1c2ccccc2sn1-c1ccccc1	7.9 µM
N#CC1=C(N)Oc2c(O)cc3ccccc3c2C1c1ccsc1 (stereo unspecified)	> 80 µM (inactive)
CCN1CCCC1CNC(=O)c1ccc2c(c1)NC(=O)/C(=C\c1ccc(C)cc1)S2 (stereo unspecified)	> 80 µM (inactive)
Cc1cc(C)c(NC(=S)NCC2CCN(C(C)c3ccccc3)C2)c(C)c1 (stereo unspecified)	64.1 µM
Cc1cc(C(=O)O)ccc1-n1c(C)cc(C=C2C(=O)c3ccccc3C2=O)c1C	> 80 µM (inactive)
CSc1nnc(NC(=O)c2ccc3c(c2)OCO3)s1	> 80 µM (inactive)
O=[N+]([O-])c1ccc2c(c1)-c1ccccc1C2O (stereo unspecified)	23.8 µM
C(=N\Nc1nc2ccccc2[nH]1)/c1ccccn1	> 80 µM (inactive)
O=C(O)c1ccc(-n2c(-c3cc(-c4ccco4)[nH]n3)n[nH]c2=S)cc1	> 80 µM (inactive)
Cc1c(C(=O)N(Cc2ccccc2Cl)C2CCS(=O)(=O)C2)oc2ccccc12 (stereo unspecified)	> 80 µM (inactive)
Cc1ccccc1N/C(SCc1cccc(Br)c1)=C(/C#N)C(N)=O	> 80 µM (inactive)
CCc1cc(-c2n[nH]c(C)c2-c2ccccc2Cl)c(O)cc1OC	> 80 µM (inactive)
COc1ccc(-c2cn3cc(C)ccc3n2)cc1Br	> 80 µM (inactive)
COc1cc(-c2cc(=O)c3c(O)c(OC)c(OC)c(O)c3o2)ccc1O	> 80 µM (inactive)
Oc1ccc(C2C[C@H]3CC[C@@H]2C3)cc1O (stereo partly specified)	31.3 µM
C=CCOc1c(Cl)cc(CNc2ccc(N(C)C)cc2)cc1OC	> 80 µM (inactive)
CCn1c([N+](=O)[O-])nc2c1c(=O)[nH]c(=O)n2C	> 80 µM (inactive)
COc1cc(NC(C)CCc2ccccc2)cc(OC)c1OC (stereo unspecified)	> 80 µM (inactive)
C=CCN1CCc2cccc3c2[C@H]1Cc1ccc(O)c(O)c1-3	> 80 µM (inactive)
[O-][N+](=Cc1ccccc1)c1ccc(Cl)cc1	> 80 µM (inactive)
CC(=O)c1cccc(NC(=O)c2cnn(-c3ccccc3)c2C)c1	> 80 µM (inactive)
CCN(CC)C(=O)c1c(C)[nH]c(=S)c(C#N)c1-c1ccco1	> 80 µM (inactive)
